The record followed here is patent US8895069B2, “Drug delivery system using hyaluronic acid-peptide conjugate micelle” (Postech Academy-Industry Foundation, priority 2011, dated 2014).

The subject of assay [1] is HUVEC (Human Umbilical Vein Endothelial Cell). The experiment in a line: HUVEC proliferation (MTT). In kind it is cell-based. The procedure:
An endothelial cell, HUVEC (Human Umbilical Vein Endothelial Cell) (innopharmascreen co. ltd., Korea) was incubated in a EGM®^2 culture medium (Lonza) and then 100 μL of the cell solution with a concentration of 2×10^4/ml was distributed per each well and incubated in a 5% CO2 cultivator at 37° C. for 16 hours. After 16 hours, the culture medium was replaced and seven types of samples were treated. Among the seven types of samples were the control group as treated only with a culture medium, and the groups treated with 50 μM, 100 μM, and 200 μM of genistein solutions and the solutions of the genistein-loaded hyaluronic acid-peptide conjugate of Example 1 comprising 50 μM, 100 μM, and 200 μM of genistein, respectively. 10 μL of each sample and 100 μL of the culture medium were mixed and treated. After the samples were treated, they were incubated in 5% CO2 incubator at 37° C. and the culture media with the samples being mixed therein […] once a day. After three days, the culture media were removed and the samples were treated with 110 μL of an MTT solution (Amresco Co. (Solon, Ohio)), and incubated in a cultivator at 37° C. for two hours and then 50 μL of DMSO was added thereto to measure a light absorbency at 540 nm. The light absorbance as measured was compared with the light absorbance of the control group and the degree of the cell growth was calculated.

Assay [2] has as its system vascular hyperpermeability due to diabetic retinopathy. Nature of the assay: Vascular hyperpermeability due to diabetic retinopathy, genistein-loaded micelle (Experimental Example 14). The assay is classed as in vivo, Sprague Dawley (SD) male rats. The procedure: First, each rat was injected intraperitonially with 60 mg/kg of streptozotocin dissolved in 10 mM citrate buffer at pH 4.5 in order for diabetes to be induced. In three days after the injection of streptozotocin, the rat was determined to develop diabetes when its serum concentration of glucose was at least 300 mg/dL. In a week after the injection of streptozotocin, 10 μL of each sample solution was injected into the vitroeus body.

In assay [3] the test system is corneal neovascularization. Nature of the assay: Corneal neovascularization, genistein-loaded micelle (Experimental Example 13). The assay is classed as in vivo, Albino Sprague Dawley male rats.
Assay [4] relates to corneal neovascularization. Nature of the assay: Corneal neovascularization after silver nitrate cauterization (Experimental Example 8). The assay is classed as in vivo, Albino Sprague Dawley male rats. To be noted: rat cornea, subconjunctival 20 μL; Avastin 10 mg/ml, peptide and conjugate […] peptide; NV control 90.8±5%. The procedure: All animal tests including this experiment were conducted in compliance with the guidelines of the Catholic University of Korea and the principles of laboratory animal care; NIH publication No. 85-23 revised in 1985.
The rat was put under anesthesia by an intra-peritoneal injection of a mixed solution of 20 mg/kg of ketamine hydrochloride and 2.5 mg/kg of xylazine hydrochloride. […] In 3 days after the cauterization, subconjunctival administration was conducted with 20 μL of each of 4 sample solutions (a normal control group, NV control (neovascularization control: a control group wherein angiogenesis was made to occur and no drug was treated thereon), a solution comprising Avastin (Roche) dissolved in PBS at a concentration of 10 mg/ml, a solution comprising anti-Flt1 peptide (GGNQWFI) (SEQ ID NO: 3) dissolved in PBS at a concentration of 2.5 mg/ml, and a solution comprising the hyaluronic acid-peptide conjugate with a lower peptide concentration obtained from Preparation Example 3 as dissolved in PBS at a concentration of 2.5 mg/ml based on the content of anti-Flt1 peptide). […] The obtained images were subjected to quantitative analysis with Image J program (Ver. 1.38, National Institute of Health, MD).

Where [5] appears, read: genistein as dispersed in water, 6.2 mg/ml.
[6] abbreviates: genistein as dissolved in DMSO, 6.2 mg/ml.

In the case of `O=c1c(-c2ccc(O)cc2)coc2cc(O)cc(O)c12` [genistein], in assay [1] (genistein alone at 200 uM versus genistein-loaded micelle at 50 uM), the “HUVEC growth inhibition, comparison of genistein alone with micelle” value is “inferior to the results obtained from the group treated with the genistein-loaded micelle at its lowest concentration (50 uM)”. Also, the “HUVEC cell number relative to control group (100%)” value in assay [1] (genistein concentration 100 μm (so in the source), 3 days, MTT) is 70.5±3.5%. In addition, the “average intensity of the fluorescence of retina relative to normal group (1)” value is 2.38±0.20 in assay [2] (setting [5]) and 2.00±0.16 in assay [2] (setting [6]). The results for the “average ratio of the neovascular area” value in assay [3] (setting [5]) and in assay [3] (setting [6]) were 68% and 38%, respectively.

In the case of “Avastin: Avastin (Roche), positive control”, the “average ratio of the neovascular area” value stood at 35.4±6.6% in assay [4]; 23% in assay [3] (rat cornea, samples in PBS: Avastin 10 mg/ml, conjugate and micelle 3.2 mg/ml peptide, control group 86%). In addition, the “average intensity of the fluorescence of retina relative to normal group (1)” value in assay [2] (normal = 1, negative control 2.54±0.20, Avastin 10 mg/ml, micelle 3.2 mg/ml peptide, four weeks after streptozotocin) stood at 1.49±0.17.
